Data from BindingDB's records for doi:10.3109/14756366.2010.491794 (Nanchang University School of Pharmaceutical Science, 2011).

molecular target: Cannabinoid receptor 1 (Cricetulus griseus, UniProt Q99NU1); experiment: CB1 Receptor Binding Assay (In Vitro)
Method: The target compounds were evaluated using a binding assay towards the CB1 receptor expressed on the membranes of Chinese hamster ovarian (CHO) cells. […] The potent synthetic cannabinoid agonist, [3H]-CP55940, was used as a radioligand (Figure 1). The CHO cells were incubated in 96-well microtiter plates. Various concentrations of the synthesised cannabinoid ligands were added and incubated for 10 min at 37°C. […] The cells were lysed and scintillation fluid was added. […] There were three parallels in the tests.

Sequence of Cannabinoid receptor 1 (Q99NU1 whole entry): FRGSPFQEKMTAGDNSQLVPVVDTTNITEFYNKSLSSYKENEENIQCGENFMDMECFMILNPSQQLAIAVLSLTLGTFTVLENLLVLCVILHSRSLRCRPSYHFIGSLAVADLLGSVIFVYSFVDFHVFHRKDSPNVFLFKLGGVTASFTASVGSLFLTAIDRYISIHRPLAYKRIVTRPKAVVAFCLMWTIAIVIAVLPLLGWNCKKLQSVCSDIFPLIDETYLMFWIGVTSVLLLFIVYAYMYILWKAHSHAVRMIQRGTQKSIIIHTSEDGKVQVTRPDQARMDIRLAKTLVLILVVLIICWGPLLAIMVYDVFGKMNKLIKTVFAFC

| SMILES | IC50 [nM] |
| --- | --- |
| Cc1c(C(=O)NN2CCCCCC2)nn(-c2ccccn2)c1-c1ccc(Cl)cc1 [5-(4-Chlorophenyl)-4-methyl-1-(pyridin-2-yl)-N-(azepan-1-yl)-1H-pyrazole-3-carboxamide (12i)] | 382 |
| Cc1c(C(=O)NN2CCCCC2)nn(-c2ccccn2)c1-c1ccc(Cl)cc1 [5-(4-Chlorophenyl)-4-methyl-1-(pyridin-2-yl)-N-(piperidin-1-yl)-1H-pyrazole-3-carboxamide (12h)] | 510 |
| Cc1c(C(=O)NCCCN2CCOCC2)nn(-c2ccc(Cl)cc2Cl)c1-c1ccc(Cl)cc1 [5-(4-Chlorophenyl)-1-(2,4-dichlorophenyl)-4-methyl-N-[3-(4-morpholinyl)propyl]-1H-pyrazole-3-carboxamide (12b)] | 455 |
| Cc1c(CN(CC(=O)O)Cc2nn(-c3ccc(Cl)cc3Cl)c(-c3ccc(Cl)cc3)c2C)nn(-c2ccc(Cl)cc2Cl)c1-c1ccc(Cl)cc1 [[2-Bis-[[5-(4-chlorophenyl)-1-(2,4-dichlorophenyl)-4-methyl-1H-pyrazol-3-yl]methyl]amino] acetic acid (13c)] | 516 |
| Cc1c(C(=O)NCCCCN2CCCCC2)nn(-c2ccc(Cl)cc2Cl)c1-c1ccc(Cl)cc1 [5-(4-Chlorophenyl)-1-(2,4-dichlorophenyl)-4-methyl-N-(4-(piperidin-1-yl)butyl)-1H-pyrazole-3-carboxamide (12f)] | > 1000 |
| Cc1c(C(=O)NC2CCC(C)CC2)nn(-c2ccccn2)c1-c1ccc(Cl)cc1 (centres undefined) [5-(4-Chlorophenyl)-4-methyl-1-(pyridin-2-yl)-N-(4-methylcyclohexyl)-1H-pyrazole-3-carboxamide (12j)] | 612 |
| Cc1c(C(=O)NC2CCC(C)CC2)nn(-c2ccc(Cl)cc2Cl)c1-c1ccc(Cl)cc1 (centres undefined) [5-(4-chlorophenyl)-1-(2,4-dichlorophenyl)-4-methyl-N-(4-methylcyclohexyl)-1H-pyrazol-3-carboxamide (12d)] | 4.31 |
| CCN(CC)CCCNC(=O)c1nn(-c2ccc(Cl)cc2Cl)c(-c2ccc(Cl)cc2)c1C [5-(4-Chlorophenyl)-1-(2,4-dichlorophenyl)-4-methyl-N-[3-(N,N-diethylamino)propyl]-1H-pyrazol-3-carboxamide (12c)] | > 1000 |
| Cc1c(C(=O)NN2CCCCC2)nn(-c2ccc(C(F)(F)F)cc2)c1-c1ccc(Cl)cc1 [5-(4-Chlorophenyl)-4-methyl-1-[4-(trifluoromethyl)phenyl]-N-(piperidin-1-yl)-1H-pyrazole-3-carboxamide (12k)] | 93.4 |
| Cc1c(C(=O)NCCCN2CCCC2)nn(-c2ccc(Cl)cc2Cl)c1-c1ccc(Cl)cc1 [5-(4-Chlorophenyl)-1-(2,4-dichlorophenyl)-4-methyl-N-(3-(pyrrolidin-1-yl)propyl)-1H-pyrazole-3-carboxamide (12e)] | 672 |
| Cc1c(C(=O)NN2CCCCCC2)nn(-c2ccc(C(F)(F)F)cc2)c1-c1ccc(Cl)cc1 [5-(4-Chlorophenyl)-4-methyl-1-[4-(trifluoromethyl)phenyl]-N-(azepan-1-yl)-1H-pyrazole-3-carboxamide (12l)] | 98.3 |
| COc1ccc2ccc(CCNC(=O)c3nn(-c4ccc(Cl)cc4Cl)c(-c4ccc(Cl)cc4)c3C)cc2c1 [5-(4-Chlorophenyl)-1-(2,4-dichlorophenyl)-4-methyl-N-[2-(7-methoxynaphthalen-2-yl)ethyl]-1H-pyrazol-3-carboxamide (12g)] | 398 |
| Cc1c(C(=O)NC2CCC(C)CC2)nn(-c2ccc(C(F)(F)F)cc2)c1-c1ccc(Cl)cc1 (centres undefined) [5-(4-Chlorophenyl)-4-methyl-1-[4-(trifluoromethyl)phenyl]-N-(4-methylcyclohexyl)-1H-pyrazole-3-carboxamide (12m)] | 79 |
| Cc1c(C(=O)NN2CCN(C)CC2)nn(-c2ccc(Cl)cc2Cl)c1-c1ccc(Cl)cc1 [5-(4-Chlorophenyl)-1-(2,4-dichlorophenyl)-4-methyl-N-(4-methylpiperazin-1-yl)-1H-pyrazole-3-carboxamide (12a)] | 173 |
